According to PMC10425210 (The Journal of Clinical Investigation, 2023):
Like-named read-outs stand apart in the source and are kept apart here.

Assay: Plasma pharmacokinetics after a single subcutaneous administration of LEN
Format: in vivo, rhesus macaques
Conditions: male, rhesus monkey, plasma; for concentration at 9 week: week 9 post dose; for concentration at 10 week: week 10 post dose; for concentration at 11 week: week 11 post dose; for concentration at 12 week: week 12 post dose; for concentration at 13 week: week 13 post dose; for concentration at 14 week: week 14 post dose; for concentration at 15 week: week 15 post dose; for concentration at 16 week: week 16 post dose; for concentration at 17 weeks post challenge: week 17 post challenge; for concentration at 18 weeks post challenge: week 18 post challenge; for concentration at 0 weeks post challenge: week 0 post challenge; for concentration at 1 weeks post challenge: week 1 post challenge; for concentration at 2 weeks post challenge: week 2 post challenge; for concentration at 3 weeks post challenge: week 3 post challenge; for concentration at 4 weeks post challenge: week 4 post challenge; for concentration at 5 weeks post challenge: week 5 post challenge; for concentration at 6 weeks post challenge: week 6 post challenge; for concentration at 7 weeks post challenge: week 7 post challenge; for concentration at 0.14 week / concentration at 0.43 week / concentration at 1 week / concentration at 2 week / concentration at 17 week / concentration at 18 week / concentration at 19 week / concentration at 20 week / concentration at 21 week / concentration at 22 week / concentration at 23 week / concentration at 24 week / concentration at 25 week: Indian-origin, outbred; for concentration at 0.14 week: week 0.14 post dose; for concentration at 0.43 week: week 0.43 post dose; for concentration at 1 week: week 1 post dose; for concentration at 2 week: week 2 post dose; for concentration at 17 week: week 17 post dose; for concentration at 18 week: week 18 post dose; for concentration at 19 week: week 19 post dose; for concentration at 20 week: week 20 post dose; for concentration at 21 week: week 21 post dose; for concentration at 22 week: week 22 post dose; for concentration at 23 week: week 23 post dose; for concentration at 24 week: week 24 post dose; for concentration at 25 week: week 25 post dose; for half-life: sc; for concentration at 3 weeks: week 3 post dose; for concentration at 4 weeks: week 4 post dose; for concentration at 5 weeks: week 5 post dose; for concentration at 6 weeks: week 6 post dose
Protocol: All animals were housed at Bioqual Inc. For the in vivo SHIV stock titration study, 8 untreated outbred Indian-origin male rhesus macaques aged 3–5 years were challenged intrarectally per round for a total of 5 challenge rounds using increasing virus doses ranging from 0.625 to 100 TCID50, with the 100 TCID50 round performed twice for increased resolution (Supplemental Table 2). Plasma viral load was measured to confirm the infection status. […] Injection sites were monitored daily by veterinary staff for 2 weeks and then weekly through the end of study. On week 7, 11 animals were challenged by the intrarectal route with 1 mL RPMI containing 100 TCID50 SHIV-SF162P3. Whole blood was collected and processed into plasma and PBMCs as necessary for the assessment of routine hematology and clinical chemistry, viral load analysis, serology, and the bioanalysis of drug levels. Animals were considered protected if they remained SHIV negative by a plasma PCR assay and seronegative by enzyme immunoassay through week 10 after challenge.
Rhesus plasma samples were stored frozen at –80°C and thawed, and a 50 μL aliquot of each was treated with 200 μL acetonitrile containing an internal standard. After precipitation of the protein component, a 100 μL aliquot of the supernatant was transferred to a clean 96-well plate and mixed with 200 μL water. A 10 μL aliquot of the above solution was then injected into a Q-Exactive high resolution mass spectrometer from Thermo Electron with electrospray ionization in positive mode.

[1] = Indian-origin (outbred), subcutaneous, 50 mg/kg, Plasma LEN (Mean), 50 mg/kg sc
[2] = Indian-origin (outbred), subcutaneous, 50 mg/kg, Plasma LEN, animal CO92, 50 mg/kg
[3] = Indian-origin (outbred), subcutaneous, 50 mg/kg, Plasma LEN, animal V411, 50 mg/kg
[4] = Indian-origin (outbred), subcutaneous, 50 mg/kg, Plasma LEN, animal V430, 50 mg/kg
[5] = Indian-origin (outbred), subcutaneous, 50 mg/kg, Plasma LEN, animal V470, 50 mg/kg
[6] = Indian-origin (outbred), subcutaneous, 75 mg/kg, Plasma LEN (Mean), 75 mg/kg sc
[7] = Indian-origin (outbred), subcutaneous, 75 mg/kg, Plasma LEN, animal CP67, 75 mg/kg
[8] = Indian-origin (outbred), subcutaneous, 75 mg/kg, Plasma LEN, animal V417, 75 mg/kg
[9] = Indian-origin (outbred), subcutaneous, 75 mg/kg, Plasma LEN, animal V426, 75 mg/kg
[10] = Indian-origin (outbred), subcutaneous, 75 mg/kg, Plasma LEN, animal V435, 75 mg/kg
[11] = subcutaneous, 5 mg/kg, Plasma LEN (Mean), 5 mg/kg sc
[12] = subcutaneous, 10 mg/kg, Plasma LEN (Mean), 10 mg/kg sc
[13] = subcutaneous, 20 mg/kg, Plasma LEN (Mean), 20 mg/kg sc
[14] = subcutaneous, 50 mg/kg, Plasma LEN (Mean), 50 mg/kg sc
[15] = subcutaneous, 75 mg/kg, Plasma LEN (Mean), 75 mg/kg sc
[16] = outbred Indian-origin, subcutaneous, 5 mg/kg, Plasma LEN (Mean), 5 mg/kg sc
[17] = outbred Indian-origin, subcutaneous, 10 mg/kg, Plasma LEN (Mean), 10 mg/kg sc
[18] = outbred Indian-origin, subcutaneous, 20 mg/kg, Plasma LEN (Mean), 20 mg/kg sc
[19] = outbred Indian-origin, subcutaneous, 50 mg/kg, Plasma LEN (Mean), 50 mg/kg sc
[20] = outbred Indian-origin, subcutaneous, 75 mg/kg, Plasma LEN (Mean), 75 mg/kg sc
[21] = outbred Indian-origin, 50 mg/kg sc, mean ± SD

Structure (SMILES): CC(C)(C#Cc1ccc(-c2ccc(Cl)c3c(NS(C)(=O)=O)nn(CC(F)(F)F)c23)c([C@H](Cc2cc(F)cc(F)c2)NC(=O)Cn2nc(C(F)(F)F)c3c2C(F)(F)[C@@H]2C[C@H]32)n1)S(C)(=O)=O [LEN, Lenacapavir]
- concentration at 9 week [1]: 51.7 nM
- concentration at 10 week [1]: 48.7 nM
- concentration at 11 week [1]: 45.5 nM
- concentration at 12 week [1]: 37.9 nM
- concentration at 13 week [1]: 37.9 nM
- concentration at 14 week [1]: 21 nM
- concentration at 15 week [1]: 18.4 nM
- concentration at 16 week [1]: 22.2 nM
- concentration at 17 weeks post challenge [2]: 13.6 nM
- concentration at 18 weeks post challenge [2]: 13.1 nM
- concentration at 17 weeks post challenge [3]: 2.22 nM
- concentration at 18 weeks post challenge [3]: 2 nM
- concentration at 16 weeks post challenge (Indian-origin (outbred), subcutaneous, 50 mg/kg, Plasma LEN, animal V430, 50 mg/kg, week 16 post challenge): 1.24 nM
- concentration at 17 weeks post challenge [4]: 1 nM
- concentration at 18 weeks post challenge [4]: 1 nM
- concentration at 17 weeks post challenge [5]: 8.55 nM
- concentration at 18 weeks post challenge [5]: 10.5 nM
- concentration at 8 week (Indian-origin (outbred), subcutaneous, 75 mg/kg, Plasma LEN (Mean), 75 mg/kg sc, week 8 post dose): 55 nM
- concentration at 9 week [6]: 72.6 nM
- concentration at 10 week [6]: 98 nM
- concentration at 11 week [6]: 71.3 nM
- concentration at 12 week [6]: 53.5 nM
- concentration at 13 week [6]: 73.8 nM
- concentration at 14 week [6]: 37.9 nM
- concentration at 15 week [6]: 24.6 nM
- concentration at 16 week [6]: 30.9 nM
- concentration at 0 weeks post challenge [7]: 154 nM
- concentration at 1 weeks post challenge [7]: 95.4 nM
- concentration at 2 weeks post challenge [7]: 136 nM
- concentration at 3 weeks post challenge [7]: 144 nM
- concentration at 4 weeks post challenge [7]: 88.1 nM
- concentration at 5 weeks post challenge [7]: 87.8 nM
- concentration at 6 weeks post challenge [7]: 97.6 nM
- concentration at 7 weeks post challenge [7]: 46.5 nM
- concentration at 0 weeks post challenge [8]: 158 nM
- concentration at 1 weeks post challenge [8]: 43.9 nM
- concentration at 2 weeks post challenge [8]: 52.5 nM
- concentration at 3 weeks post challenge [8]: 88.5 nM
- concentration at 4 weeks post challenge [8]: 69 nM
- concentration at 5 weeks post challenge [8]: 48.8 nM
- concentration at 6 weeks post challenge [8]: 57.3 nM
- concentration at 7 weeks post challenge [8]: 43.9 nM
- concentration at 0 weeks post challenge [9]: 178 nM
- concentration at 1 weeks post challenge [9]: 68 nM
- concentration at 2 weeks post challenge [9]: 89.7 nM
- concentration at 3 weeks post challenge [9]: 144 nM
- concentration at 4 weeks post challenge [9]: 117 nM
- concentration at 5 weeks post challenge [9]: 68.2 nM
- concentration at 6 weeks post challenge [9]: 132 nM
- concentration at 7 weeks post challenge [9]: 57.4 nM
- concentration at 0 weeks post challenge [10]: 28.2 nM
- concentration at 1 weeks post challenge [10]: 12.5 nM
- concentration at 2 weeks post challenge [10]: 12.4 nM
- concentration at 3 weeks post challenge [10]: 14.8 nM
- concentration at 4 weeks post challenge [10]: 11.2 nM
- concentration at 5 weeks post challenge [10]: 9.22 nM
- concentration at 6 weeks post challenge [10]: 8.59 nM
- concentration at 0.14 week [11]: 9.76 nM
- concentration at 0.43 week [11]: 5.72 nM
- concentration at 1 week [11]: 2.82 nM
- concentration at 2 week [11]: 2.96 nM
- concentration at 0.14 week [12]: 19.9 nM
- concentration at 0.43 week [12]: 13.4 nM
- concentration at 1 week [12]: 6.88 nM
- concentration at 2 week [12]: 8.58 nM
- concentration at 0.14 week [13]: 41.3 nM
- concentration at 0.43 week [13]: 17.8 nM
- concentration at 1 week [13]: 9.23 nM
- concentration at 2 week [13]: 16.6 nM
- concentration at 0.14 week [14]: 196 nM
- concentration at 0.43 week [14]: 79 nM
- concentration at 1 week [14]: 56.5 nM
- concentration at 2 week [14]: 87.1 nM
- concentration at 17 week [14]: 22.1 nM
- concentration at 18 week [14]: 17 nM
- concentration at 19 week [14]: 11.1 nM
- concentration at 20 week [14]: 8.52 nM
- concentration at 21 week [14]: 6.49 nM
- concentration at 22 week [14]: 7.23 nM
- concentration at 23 week [14]: 5.76 nM
- concentration at 24 week [14]: 6.32 nM
- concentration at 25 week [14]: 6.61 nM
- concentration at 0.14 week [15]: 498 nM
- concentration at 0.43 week [15]: 223 nM
- concentration at 1 week [15]: 162 nM
- concentration at 2 week [15]: 213 nM
- concentration at 17 week [15]: 24.5 nM
- concentration at 18 week [15]: 20.9 nM
- concentration at 19 week [15]: 16.2 nM
- concentration at 20 week [15]: 16.6 nM
- concentration at 21 week [15]: 12.3 nM
- concentration at 22 week [15]: 9.35 nM
- concentration at 23 week [15]: 10.3 nM
- concentration at 24 week [15]: 11.8 nM
- concentration at 25 week [15]: 11.6 nM
- half-life (outbred Indian-origin, 5-75 mg/kg sc, read-out: plasma drug half-life): 14 to 56 days
- half-life (outbred Indian-origin, single sc dosing, range over 5-75 mg/kg groups, read-out: half-life): 17 to 53 days
- concentration at 3 weeks [16]: 4.23 nM
- concentration at 4 weeks [16]: 4.14 nM
- concentration at 5 weeks [16]: 6 nM
- concentration at 6 weeks [16]: 4.42 nM
- concentration at 7 weeks (outbred Indian-origin, subcutaneous, 5 mg/kg, Plasma LEN (Mean), 5 mg/kg sc, week 7 post dose): 5.29 nM
- concentration at 3 weeks [17]: 11.3 nM
- concentration at 4 weeks [17]: 10.2 nM
- concentration at 5 weeks [17]: 12.8 nM
- concentration at 6 weeks [17]: 7.32 nM
- concentration at 7 weeks (outbred Indian-origin, subcutaneous, 10 mg/kg, Plasma LEN (Mean), 10 mg/kg sc, week 7 post dose): 10.1 nM
- concentration at 3 weeks [18]: 21.2 nM
- concentration at 4 weeks [18]: 23.9 nM
- concentration at 5 weeks [18]: 30.1 nM
- concentration at 6 weeks [18]: 26.8 nM
- concentration at 7 weeks (outbred Indian-origin, subcutaneous, 20 mg/kg, Plasma LEN (Mean), 20 mg/kg sc, week 7 post dose): 27.4 nM
- concentration at 3 weeks [19]: 92.4 nM
- concentration at 4 weeks [19]: 85.3 nM
- concentration at 5 weeks [19]: 80.6 nM
- concentration at 6 weeks [19]: 71.9 nM
- concentration at 7 weeks (outbred Indian-origin, subcutaneous, 50 mg/kg, Plasma LEN (Mean), 50 mg/kg sc, week 7 post dose): 103 nM
- concentration at 3 weeks [20]: 126 nM
- concentration at 4 weeks [20]: 95.8 nM
- concentration at 5 weeks [20]: 89.9 nM
- concentration at 6 weeks [20]: 65.1 nM
- concentration at 7 weeks (outbred Indian-origin, subcutaneous, 75 mg/kg, Plasma LEN (Mean), 75 mg/kg sc, week 7 post dose): 129 nM
- concentration at 7 weeks (outbred Indian-origin, subcutaneous, LEN exposures at the time of challenge, 11 challenged animals, week 7 postdose): 18 to 177 nM
- AUC(0-t) (outbred Indian-origin, 5 mg/kg sc, mean ± SD): 9.3 ± 1.9 µM·h
- AUC(0-inf) [21]: 243 ± 70 µM·h
- AUC(0-t) [21]: 179 ± 23 µM·h
- Cmax [21]: 200 ± 74 nM
